Source: patent US20240262815A1, “HETEROARYL DERIVATIVE, METHOD FOR PREPARING SAME, AND PHARMACEUTICAL COMPOSITION COMPRISING SAME AS ACTIVE INGREDIENT” (VORONOI INC., priority 2021, published 2024)

test system: SK-BR-3 cancer cells; experiment: Inhibitory activity against proliferation of SK-BR-3 cancer cells (CellTiter-Glo); assay type: cell-based; conditions: Homo sapiens, SK-BR-3, 120 h, ErbB2-overexpressing SK-BR-3 cells, 120 hours after treatment
Method in brief: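 Cells seeded 48 h before dosing (SK-BR-3 in McCOY'S 5A + 10% FBS; BT-474 in RPMI-1640 + 20% FBS), then exposed 120 h to 12 concentrations, 0.2 nM-5 μM final. Viability by CellTiter-Glo luminescence; GI50 from growth rate vs control, triplicate runs.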

| SMILES | GI50 |
| --- | --- |
| C=CC(=O)Nc1cc(Nc2cc(N3OCC[C@@H]3c3cccc(C#Cc4ccccc4)c3)ncn2)c(OC)cc1N1CCN(C)CC1 [Example 296, (R)-N-(4-methoxy-2-(4-methylpiper-azin-1-yl)-5-((6-(3-(3-(phenyleth-ynyl)phenyl)isox-azolidin-2-yl)pyr-imidin-4-yl)amino)-phenyl)acrylamide] | 50 to 500 nM |
| C=CC(=O)Nc1cc(Nc2cc(N3OCC[C@@H]3c3cccc(-c4ccc(O)nc4)c3)ncn2)c(OC)cc1N1CCN(C)CC1 [Example 299, (R)-N-(5-((6-(3-(3-(6-hydroxypyridin-3-yl)phenyl)isox-azolidin-2-yl)pyr-imidin-4-yl)amino)-4-methoxy-2-(4-methylpiperazin-1-yl)phenyl)acryl-amide] | 500 to 5000 nM |
| C=CC(=O)Nc1cc(Nc2cc(N3OCC[C@@H]3c3cccc(C#CC(C)(C)C)c3)ncn2)c(OC)cc1N1CCN(C)CC1 [Example 311, (R)-N-(5-((6-(3-(3-(3,3-dimethyl-but-1-yn-1-yl)phen-yl)isoxazolidin-2-yl)pyrimidin-4-yl)-amino)-4-methoxy-2-(4-methylpiper-azin-1-yl)phenyl)-acrylamide] | 50 to 500 nM |
| C=CC(=O)Nc1cc(Nc2cc(N3OCC[C@@H]3c3cccc(C#Cc4cccc(O)c4)c3)ncn2)c(OC)cc1N(C)CCN(C)C [Example 312, (R)-N-(2-((2-(dimethylamino)-ethyl)(methyl)-amino)-5-((6-(3-(3-((3-hydroxy-phenyl)ethynyl)-phenyl)isoxazol-idin-2-yl)pyrim-idin-4-yl)amino)-4-methoxyphen-yl)acrylamide] | 50 to 500 nM |
| C=CC(=O)Nc1cc(Nc2cc(N3OCC[C@@H]3c3cccc(-c4cccc(F)c4)c3)ncn2)c(OC)cc1N1CC2CCC(C1)N2C1CC1 [Example 316, N-(2-((1R,5S)-8-cyclopropyl-3,8-diazabicyclo-[3.2.1]octan-3-yl)-5-((6-((R)-3-(3′-fluoro-[1,1′-biphen-yl]-3-yl)isoxazol-idin-2-yl)pyrim-idin-4-yl)amino)-4-methoxyphenyl)-acrylamide] | 50 to 500 nM |
| C=CC(=O)Nc1cc(Nc2cc(N3OCC[C@@H]3c3cccc(-c4cccc(F)c4)c3)ncn2)c(OC)cc1N1CC2(CNC2)C1 [Example 321, (R)-N-(5-((6-(3-(3′-fluoro-[1,1′-biphenyl]-3-yl)-isoxazolidin-2-yl)-pyrimidin-4-yl)-amino)-4-meth-oxy-2-(2,6-diaza-spiro[3.3]heptan-2-yl)phenyl)acryl-amide] | 50 to 500 nM |
| C=CC(=O)Nc1cc(Nc2cc(N3OCC[C@@H]3c3cccc(OCc4cccc(F)c4)c3)ncn2)c(OC)cc1N1CCN(C)CC1 [Example compound 83, (R)-N-(5-((6-(3-(3-((3-fluorobenzyl)oxy)phenyl)isoxazolidin-2-yl)pyrimidin-4-yl)amino)-4-methoxy-2-(4-methylpiperazin-1-yl)phenyl)acrylamide] | 50 to 500 nM |
| C=CC(=O)Nc1cc(Nc2cc(N3OCC[C@@H]3c3cccc(OCc4cccc(C)n4)c3)ncn2)c(OC)cc1N1CCN(C)CC1 [Example compound 99, (R)-N-(4-methoxy-2-(4-methylpiperazin-1-yl)-5-((6-(3-(3-((6-methylpyridin-2-yl)methoxy)phenyl)isoxazolidin-2-yl)pyrimidin-4-yl)amino)phenyl)acrylamide] | 50 to 500 nM |
| C=CC(=O)Nc1cc(Nc2cc(N3OCC[C@@H]3c3cccc(OCc4cccc(C)n4)c3)ncn2)c(OC)cc1N1CCC(N2CCN(C3CC3)CC2)CC1 [Example compound 100, (R)-N-(2-(4-(4-cyclopropylpiperazin-1-yl)piperidin-1-yl)-4-methoxy-5-((6-(3-(3-((6-methylpyridin-2-yl)methoxy)phenyl)isoxazolidin-2-yl)pyrimidin-4-yl)amino)phenyl)acrylamide] | 50 to 500 nM |
| C=CC(=O)Nc1cc(Nc2cc(N3OCC[C@@H]3c3cccc(Oc4cc(F)ccc4F)c3)ncn2)c(OC)cc1N1CCN(C)CC1 [Example compound 103, (R)-N-(5-((6-(3-(3-(2,5-difluorophenoxy)phenyl)isoxazolidin-2-yl)pyrimidin-4-yl)amino)-4-methoxy-2-(4-methylpiperazin-1-yl)phenyl)acrylamide] | 50 to 500 nM |
| C=CC(=O)Nc1cc(Nc2cc(N3OCCC3c3ccc(Cl)c(OCc4cccc(F)c4)c3)ncn2)c(OC)cc1N1CCN(C)CC1 (stereo not drawn) [Example compound 115, N-(5-((6-(3-(4-chloro-3-((3-fluorobenzyl)oxy)phenyl)isoxazolidin-2-yl)pyrimidin-4-yl)amino)-4-methoxy-2-(4-methylpiperazin-1-yl)phenyl)acrylamide] | 50 to 500 nM |
| C=CC(=O)Nc1cc(Nc2cc(N3OCCC3c3cccc(C#Cc4ccccc4)c3)ncn2)c(OC)cc1N1CCN(C)CC1 (stereo not drawn) [Example compound 137, N-(4-methoxy-2-(4-methylpiperazin-1-yl)-5-((6-(3-(3-(phenylethynyl)phenyl)isoxazolidin-2-yl)pyrimidin-4-yl)amino)phenyl)acrylamide] | 50 to 500 nM |

The next lines start with the values.

| GI50 | SMILES |
| --- | --- |
| < 50 nM | C=CC(=O)Nc1cc(Nc2cc(N3OCC[C@@H]3c3cccc(C#Cc4cccc(F)c4)c3)ncn2)c(OC)cc1N(C)CCN(C)C [Example 313, (R)-N-(2-((2-(dimethylamino)-ethyl)(methyl)-amino)-5-((6-(3-(3-((3-fluorophen-yl)ethynyl)phenyl)-isoxazolidin-2-yl)pyrimidin-4-yl)-amino)-4-methoxy-phenyl)acrylamide] |
| < 50 nM | C=CC(=O)Nc1cc(Nc2cc(N3OCC[C@@H]3c3cccc(-c4cccc(F)c4)c3)ncn2)c(OC)cc1N1CC2CN(C)CC2C1 (stereo partly drawn) [Example 319, N-(5-((6-((R)-3-(3′-fluoro-[1,1′-biphenyl]-3-yl)-isoxazolidin-2-yl)-pyrimidin-4-yl)-amino)-4-methoxy-2-(5-methylhexa-hydropyrrolo[3,4-c]pyrrol-2(1H)-yl)-phenyl)acrylamide] |
| < 50 nM | C=CC(=O)Nc1cc(Nc2cc(N3OCC[C@@H]3c3cccc(Oc4cccc(C(F)(F)F)c4)c3)ncn2)c(OC)cc1N1CCN(C)CC1 [Example compound 93, (R)-N-(4-methoxy-2-(4-methylpiperazin-1-yl)-5-((6-(3-(3-(3-(trifluoromethyl)phenoxy)phenyl)isoxazolidin-2-yl)pyrimidin-4-yl)amino)phenyl)acrylamide] |
| < 50 nM | C=CC(=O)Nc1cc(Nc2cc(N3OCC[C@@H]3c3cccc(Oc4cccc(C(F)(F)F)c4)c3)ncn2)c(OC)cc1N1CCC(N2CCN(C3CC3)CC2)CC1 [Example compound 94, (R)-N-(2-(4-(4-cyclopropylpiperazin-1-yl)piperidin-1-yl)-4-methoxy-5-((6-(3-(3-(3-(trifluoromethyl)phenoxy)phenyl)isoxazolidin-2-yl)pyrimidin-4-yl)amino)phenyl)acrylamide] |
| < 50 nM | C=CC(=O)Nc1cc(Nc2cc(N3OCCC3c3cccc(OCc4ccccn4)c3)ncn2)c(OC)cc1N1CC[C@@H](N(C)C)C1 (stereo partly drawn) [Example compound 97] |
| < 50 nM | C=CC(=O)Nc1cc(Nc2cc(N3OCCC3c3cccc(-c4ccoc4)c3)ncn2)c(OC)cc1N1CCC(N2CCN(C3CC3)CC2)CC1 (stereo not drawn) [Example compound 123, N-(2-(4-(4-cyclopropylpiperazin-1-yl)piperidin-1-yl)-5-((6-(3-(3-(furan-3-yl)phenyl)isoxazolidin-2-yl)pyrimidin-4-yl)amino)-4-methoxyphenyl)acrylamide] |
| < 50 nM | C=CC(=O)Nc1cc(Nc2cc(N3OCC[C@@H]3c3cc(F)cc(-c4cnn(C)c4)c3)ncn2)c(OC)cc1N1CCC(N2CCN(C3CC3)CC2)CC1 [Example compound 129, (R)-N-(2-(4-(4-cyclopropylpiperazin-1-yl)piperidin-1-yl)-5-((6-(3-(3-fluoro-5-(1-methyl-1H-pyrazol-4-yl)phenyl)isoxazolidin-2-yl)pyrimidin-4-yl)amino)-4-methoxyphenyl)acrylamide] |
| < 50 nM | C=CC(=O)Nc1cc(Nc2cc(N3OCC[C@@H]3c3cc(F)cc(-c4cccc(F)c4)c3)ncn2)c(OC)cc1N1CCN(C)CC1 [Example compound 130, (R)-N-(5-((6-(3-(3′,5-difluoro-[1,1′-biphenyl]-3-yl)isoxazolidin-2-yl)pyrimidin-4-yl)amino)-4-methoxy-2-(4-methylpiperazin-1-yl)phenyl)acrylamide] |
| < 50 nM | C=CC(=O)Nc1cc(Nc2cc(N3OCC[C@@H]3c3cc(F)cc(-c4cccc(F)c4)c3)ncn2)c(OC)cc1N1CCC(N2CCN(C3CC3)CC2)CC1 [Example compound 131, (R)-N-(2-(4-(4-cyclopropylpiperazin-1-yl)piperidin-1-yl)-5-((6-(3-(3′,5-difluoro-[1,1′-biphenyl]-3-yl)isoxazolidin-2-yl)pyrimidin-4-yl)amino)-4-methoxyphenyl)acrylamide] |
| < 50 nM | C=CC(=O)Nc1cc(Nc2cc(N3OCCC3c3cc(F)cc(OCc4nccs4)c3)ncn2)c(OC)cc1N1CCN(C)CC1 (stereo not drawn) [Example compound 132, N-(5-((6-(3-(3-fluoro-5-(thiazol-2-ylmethoxy)phenyl)isoxazolidin-2-yl)pyrimidin-4-yl)amino)-4-methoxy-2-(4-methylpiperazin-1-yl)phenyl)acrylamide] |
| < 50 nM | C=CC(=O)Nc1cc(Nc2cc(N3OCC[C@@H]3c3cc(F)cc(-c4ccco4)c3)ncn2)c(OC)cc1N1CCN(C)CC1 [Example compound 133, (R)-N-(5-((6-(3-(3-fluoro-5-(furan-2-yl)phenyl)isoxazolidin-2-yl)pyrimidin-4-yl)amino)-4-methoxy-2-(4-methylpiperazin-1-yl)phenyl)acrylamide] |
| < 50 nM | C=CC(=O)Nc1cc(Nc2cc(N3OCC[C@@H]3c3cc(F)cc(-c4ccco4)c3)ncn2)c(OC)cc1N1CCC(N2CCN(C3CC3)CC2)CC1 [Example compound 134, (R)-N-(2-(4-(4-cyclopropylpiperazin-1-yl)piperidin-1-yl)-5-((6-(3-(3-fluoro-5-(furan-2-yl)phenyl)isoxazolidin-2-yl)pyrimidin-4-yl)amino)-4-methoxyphenyl)acrylamide] |
